Results on 44 molecules are retold here after ChEMBL document CHEMBL3877258, “Targeting cytochrome P450 (CYP) 1B1 with steroid derivatives” (Bioorg Med Chem Lett, 2016).

One may read the IC50 as the concentration that gives 50% inhibition. In general, inhibition refers to the relative decrease from the control value, in per cent.

For the first data set, the target named is T1, Cytochrome P450 1B1 (Homo sapiens, UniProt Q16678).
T1 sequence (Q16678 whole entry): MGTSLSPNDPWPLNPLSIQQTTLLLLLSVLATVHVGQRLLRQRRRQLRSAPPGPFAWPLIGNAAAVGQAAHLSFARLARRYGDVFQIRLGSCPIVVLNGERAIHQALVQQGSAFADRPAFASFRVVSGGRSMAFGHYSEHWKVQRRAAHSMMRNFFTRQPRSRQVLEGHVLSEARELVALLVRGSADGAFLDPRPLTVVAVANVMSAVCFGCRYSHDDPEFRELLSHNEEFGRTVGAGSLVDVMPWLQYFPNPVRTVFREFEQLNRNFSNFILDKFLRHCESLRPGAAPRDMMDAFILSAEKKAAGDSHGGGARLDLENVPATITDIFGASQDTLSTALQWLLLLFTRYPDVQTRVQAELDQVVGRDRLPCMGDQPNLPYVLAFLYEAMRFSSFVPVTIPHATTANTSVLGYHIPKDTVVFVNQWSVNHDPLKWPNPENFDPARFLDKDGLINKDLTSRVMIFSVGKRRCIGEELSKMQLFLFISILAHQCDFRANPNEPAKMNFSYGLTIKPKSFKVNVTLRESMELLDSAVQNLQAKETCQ
Nature of the data set: Inhibition of recombinant human CYP1B1 expressed in bacterial microsomes co-expressing P450 reductase using 7-ethyl-O-resorufin as substrate after 45 mins in presence of NADPH by fluorescence assay.
Details: not given
Consider `C[C@]12CC[C@@H]3c4ccc(S)cc4CC[C@H]3[C@@H]1CCC2=O`, for which the concentration for half-maximal inhibition (IC50) was determined as 3.4 µM.

The next data set has as its target T2, CYP1B1 (Homo sapiens, UniProt Q16678).
T2 sequence (Q16678 whole entry): T1 sequence (Q16678 whole entry)
Nature of the data set: Inhibition of recombinant human CYP1B1 expressed in bacterial microsomes co-expressing P450 reductase at 3 uM using 7-ethyl-O-resorufin as substrate after 45 mins in presence of NADPH by fluorescence assay relative to control. The settings on record: probe 7-ethyl-O-resorufin.
For `C[C@]12CC[C@@H]3c4ccc(OS(N)(=O)=O)cc4CC[C@H]3[C@@H]1C[C@H](CCCNC(=O)C(Cc1ccccc1)NC(=O)Cc1ccccc1)[C@@H]2O` (stereo not given in full), the inhibition at 0.75 h, 3 µM was found to be 22.8%.
Take `CCc1ccc2c(c1)CC[C@@H]1[C@@H]2CC[C@]2(C)C(=O)CC[C@@H]12`: the inhibition at 0.75 h, 3 µM was 42.8%.
On to `C[C@]12CC[C@@H]3c4ccc(S)cc4CC[C@H]3[C@@H]1CCC2=O`, for which the inhibition at 0.75 h, 3 µM lay in the range of 61.1 to 61.6%.
Turning to `COc1cc2c(cc1O)CC[C@@H]1[C@@H]2CC[C@]2(C)[C@@H](O)CC[C@@H]12` [2-METHOXYESTRADIOL], the inhibition at 0.75 h, 3 µM is 4.4%.
Still for that read-out and setting: the result for `CNS(=O)(=O)Oc1cc2c(cc1OS(=O)(=O)NC)[C@H]1CC[C@]3(C)C(=O)CC[C@H]3[C@@H]1CC2` reads 30.3%; that for `C[C@]12CC[C@@H]3c4ccccc4C(O)C[C@H]3[C@@H]1CC[C@@H]2O` (stereo not given in full), 20%; that for `COc1cc2c(cc1O)CC[C@@H]1[C@@H]2CC[C@]2(C)C(=O)CC[C@@H]12`, 13.2%.
As for `C[C@]12CC[C@@H]3c4ccc(OCCBr)cc4CC[C@H]3[C@@H]1CC[C@@H]2O`, the inhibition at 0.75 h, 3 µM came to 11.1%.
With `C[C@]12CC[C@@H]3c4ccc(C5CO5)cc4CC[C@H]3[C@@H]1CCC2=O` (stereo not given in full), the inhibition at 0.75 h, 3 µM was 12.4%.
Still for that read-out and setting: the result for `C[C@]12CC[C@@H]3c4ccc(C(=O)O)cc4CC[C@H]3[C@@H]1CCC2=O` reads 11.5%.
Turning to `C[C@]12CC[C@@H]3c4ccc([N+](C)(C)[O-])cc4CC[C@H]3[C@@H]1CCC2=O`, the inhibition at 0.75 h, 3 µM worked out at 36.6%.
For the molecule `CCCCCCCN(C=O)[C@H]1CC[C@H]2[C@@H]3CCc4cc(O)ccc4[C@H]3CC[C@]12C`, the inhibition at 0.75 h, 3 µM amounted to 0%.
Still for that read-out and setting: the result for `C#C[C@]1(O)CC[C@H]2[C@@H]3CCc4cc(O)c(Br)cc4[C@H]3CC[C@@]21C` reads 8.4%; that for `C[C@]12CC[C@@H]3c4ccc(N)cc4CC[C@H]3[C@@H]1CCC2=O`, 16.2%.
Same read-out and setting: the result for `CCS(=O)(=O)Oc1ccc2c(c1)CC[C@@H]1[C@@H]2CC[C@]2(C)C(=O)CC[C@@H]12` reads 0.3%; that for `C#C[C@]1(O)CC[C@H]2[C@@H]3CCc4c(ccc(O)c4Br)[C@H]3CC[C@@]21C`, 7.5%; that for `COc1cc2c(cc1O)CC[C@@H]1[C@@H]2CC[C@@]2(C)[C@H]1CC[C@@]2(O)Cc1ccccc1`, 0%.
In the case of `CC(=O)c1ccc(C(=O)N2CCCC2C(=O)NCCCCCCCCCCC[C@@H]2Cc3cc(O)ccc3[C@H]3CC[C@]4(C)[C@@H](O)CC[C@H]4[C@H]23)cc1` (stereo not given in full), the inhibition at 0.75 h, 3 µM amounted to 22.1%.
As to `C[C@]12CC[C@@H]3c4ccc(OC(N)=O)cc4CC[C@H]3[C@@H]1CCC2=O`, the inhibition at 0.75 h, 3 µM came out at 9.9%.
Still for that read-out and setting: the result for `C[C@]12CC[C@@H]3c4ccc(O)c(Br)c4CC[C@H]3[C@@H]1CC[C@@H]2O` reads 29%; that for `COc1cc2c(cc1OS(N)(=O)=O)CC[C@@H]1[C@@H]2CC[C@@]2(C)[C@H]1CC[C@@]2(O)Cc1ccccc1`, 7.7%; that for `CCCCCCCN[C@H]1CC[C@H]2[C@@H]3CCc4ccc(OC)cc4[C@H]3CC[C@]12C`, 9.4%.
The same measure, in the same setting: to `Cc1ccc(S(=O)(=O)/N=S(\C)c2ccc3c(c2)CC[C@@H]2[C@@H]3CC[C@]3(C)C(=O)CC[C@@H]23)cc1` (stereo not given in full) belongs 0.1%; to `CCCCCCCN(C=O)[C@H]1CC[C@H]2[C@@H]3CCc4cc(OC)ccc4[C@H]3CC[C@]12C`, 3.5%.
On the same count and under the same terms, the result for `C[C@]12CC[C@@H]3c4ccc(OS(N)(=O)=O)cc4CC[C@H]3[C@@H]1C[C@H](CCCNC(=O)C1CCCN1C(=O)Cc1ccccc1)[C@@H]2O` (stereo not given in full) reads 21.4%; that for `C[C@]12CC[C@@H]3c4ccc(O)cc4CC[C@H]3[C@@H]1C[C@H](CCCNC(=O)C(Cc1ccccc1)NC(=O)Cc1ccccc1)[C@@H]2O` (stereo not given in full), 7.7%; that for `COc1ccc2c(c1)CC[C@@H]1[C@@H]2CC[C@]2(C)C(=O)CC[C@@H]12`, 2%.
Take `C[C@]12CC[C@@H]3c4ccc(OS(=O)(=O)O)cc4CC[C@H]3[C@@H]1CC[C@@H]2O`: the inhibition at 0.75 h, 3 µM stood at 0.9%.
For `C[C@]12CC[C@@H]3c4ccc(O)cc4C(=O)C[C@H]3[C@@H]1CC[C@@H]2O`, the inhibition at 0.75 h, 3 µM was 9.7%.
Regarding `C[C@]12CC[C@@H]3c4cc(F)c(O)cc4CC[C@H]3[C@@H]1CC[C@@H]2O`, the inhibition at 0.75 h, 3 µM came out at 28.7%.
On the same count and under the same terms, the result for `C[C@]12CC[C@@H]3c4ccc(OS(N)(=O)=O)cc4CC[C@H]3[C@@H]1CC[C@@]2(O)CN1CCN(C(=O)[C@H](Cc2ccccc2)NC(=O)CCC2CCCC2)CC1` reads 14.9%.
For `COc1cc2c(cc1OS(N)(=O)=O)CC[C@@H]1[C@@H]2CC[C@]2(C)[C@@H](O)CC[C@@H]12`, the inhibition at 0.75 h, 3 µM stood at 23.8%.
On the same count and under the same terms, the result for `C[C@]12CC[C@@H]3c4ccccc4C(=O)C[C@H]3[C@@H]1CCC2=O` reads 16%.
Consider `C[C@]12CC[C@@H]3c4ccc(O)cc4CC[C@H]3[C@@H]1C[C@@H](CCCBr)[C@@H]2O`, for which the inhibition at 0.75 h, 3 µM is 2%.
The same measure, in the same setting: the result for `Cc1cc2c(cc1O)CC[C@@H]1[C@@H]2CC[C@]2(C)[C@@H](O)CC[C@@H]12` reads 1%.
Take `C[C@]12CC[C@@H]3c4ccc(NC(=O)O)cc4CC[C@H]3[C@@H]1CCC2=O`: the inhibition at 0.75 h, 3 µM was determined as 8.9%.
Still for that read-out and setting: the result for `C[C@]12CC[C@@H]3c4ccc(OS(N)(=O)=O)cc4CC[C@H]3[C@@H]1CCC2=O` [EMATE] reads 8.6%.
The same measure, in the same setting: to `C[C@]12CC[C@@H]3c4cc(Br)c(O)cc4CC[C@H]3[C@@H]1CC[C@@H]2O` belongs 22.6%; to `C[C@]12CC[C@@H]3c4ccc(O)c(F)c4CC[C@H]3[C@@H]1CC[C@@H]2O`, 7.5%.
On the same count and under the same terms, the result for `C[C@]12CC[C@@H]3c4cc(Br)c(O)c(Br)c4CC[C@H]3[C@@H]1CC[C@@H]2O` reads 1%.
Regarding `O=c1cc(-c2ccccc2)oc2c1ccc1ccccc12` [ALPHA-NAPHTHOFLAVONE], the inhibition at 0.75 h, 3 µM amounted to 89.2%.
Regarding `C[C@]12CC[C@@H]3c4ccc(O)cc4CC[C@H]3[C@@H]1CC[C@@]21CCC(=O)O1`, the inhibition at 0.75 h, 3 µM amounted to 13.9%.
Same read-out and setting: to `C[C@]12CC[C@@H]3c4ccccc4CC[C@H]3[C@@H]1CCC2=O` belongs 11.3%; to `C[C@]12CC[C@@H]3c4cc([N+](=O)[O-])c(O)c([N+](=O)[O-])c4CC[C@H]3[C@@H]1CC[C@@H]2O`, 11.4%.
